The values that follow come from PMC7792806, “Development of Second Generation Activity-Based Chemical Probes for Sirtuins” (Molecules, 2020).

One assay deals with T1, SIRT1 (Homo sapiens, UniProt Q96EB6).
T1 construct: Plasmids of SIRT1 (full length); made in house
T1 sequence (Q96EB6 1-747): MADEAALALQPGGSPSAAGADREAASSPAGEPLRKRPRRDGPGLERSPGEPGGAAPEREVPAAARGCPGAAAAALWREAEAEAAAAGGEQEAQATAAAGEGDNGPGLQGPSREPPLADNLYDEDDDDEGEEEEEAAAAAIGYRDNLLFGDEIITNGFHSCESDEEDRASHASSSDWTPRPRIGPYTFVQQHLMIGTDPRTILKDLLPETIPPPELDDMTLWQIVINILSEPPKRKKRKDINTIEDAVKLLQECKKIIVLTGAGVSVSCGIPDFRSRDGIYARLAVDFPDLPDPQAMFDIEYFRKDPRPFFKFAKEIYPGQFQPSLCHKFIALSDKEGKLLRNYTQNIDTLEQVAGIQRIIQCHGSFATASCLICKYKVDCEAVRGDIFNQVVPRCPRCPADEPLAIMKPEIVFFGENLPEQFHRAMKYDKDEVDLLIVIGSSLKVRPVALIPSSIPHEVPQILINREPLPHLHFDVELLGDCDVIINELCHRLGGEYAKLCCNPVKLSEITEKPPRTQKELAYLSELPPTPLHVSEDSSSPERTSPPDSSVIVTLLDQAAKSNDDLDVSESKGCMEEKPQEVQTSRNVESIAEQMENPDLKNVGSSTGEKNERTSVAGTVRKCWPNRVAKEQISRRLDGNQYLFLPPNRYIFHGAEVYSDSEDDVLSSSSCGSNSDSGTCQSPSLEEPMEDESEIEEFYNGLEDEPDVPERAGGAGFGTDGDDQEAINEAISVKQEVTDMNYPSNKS
Put plainly: Sirtuin inhibition assay (HPLC), SIRT1. Format: biochemical. Conditions: substrate p53K382Ac; 500 μM NAD+, 500 μM peptide, 10 μM sirtuin, pH 7.5, 37 °C. As for the experimental part: Plasmids of SIRT1 (full length), SIRT2 (38-356), SIRT3 (102-399), and SIRT5 (34-302) were generous gifts from Dr. Hening Lin (Cornell University, Ithaca, NY, USA). SIRT6 was a gift from Cheryl Arrowsmith (Addgene plasmid #28271). The proteins were expressed and purified according to previously published protocols. The identity of the protein was confirmed by tryptic digestion followed by LC-MS/MS analysis performed at the Vermont Genetic Network (VGN) Proteomics Facility. Protein concentrations were determined by Bradford assay (Thermo Fisher Scientific, Rockford, IL, USA).
A typical reaction contained 500 μM NAD^+ and 500 μM peptide substrate (H3K9Ac for SIRT2, SIRT3 and SIRT6, p53K382Ac for SIRT1 and SIRT5) of varying concentrations of a small molecule probe in 100 mM phosphate buffer pH 7.5. The reactions were initiated by the addition of 10 μM of sirtuin and were incubated at 37 °C before being quenched by 8 μL of 10% TFA. The incubation time was controlled so that the conversion of substrate was less than 15%. The samples were then injected on an HPLC fitted to a Macherey-Nagel Nucleosil C18 column. NAD^+, NAM and AADPR (acetyl-ADP-ribose) peaks were resolved using a gradient of 0 to 20% methanol in 20 mM ammonium acetate. Chromatograms were analyzed at 260 nm. Reactions were quantified by integrating areas of peaks corresponding to NAD^+ and AADPR. Rates were plotted as a function of small molecule probe concentration, and points were fitted to the following equation:ν(%) = ν0(%) − [ν0(%)(10^x)/(10^x + IC50)](1) where ν(%) represents the turnover rate expressed as percent enzymatic activity remaining, and ν0(%) represents the uninhibited turnover rate expressed as an enzymatic activity of 100%. The variable x represents the log[probe] in nanomolar. IC50 values were derived from this equation.

The target of the next assay is T2, SIRT2 (Homo sapiens, UniProt Q8IXJ6).
T2 construct: expressed in transfected cells; host or cells: HEK293
T2 sequence (Q8IXJ6 1-389): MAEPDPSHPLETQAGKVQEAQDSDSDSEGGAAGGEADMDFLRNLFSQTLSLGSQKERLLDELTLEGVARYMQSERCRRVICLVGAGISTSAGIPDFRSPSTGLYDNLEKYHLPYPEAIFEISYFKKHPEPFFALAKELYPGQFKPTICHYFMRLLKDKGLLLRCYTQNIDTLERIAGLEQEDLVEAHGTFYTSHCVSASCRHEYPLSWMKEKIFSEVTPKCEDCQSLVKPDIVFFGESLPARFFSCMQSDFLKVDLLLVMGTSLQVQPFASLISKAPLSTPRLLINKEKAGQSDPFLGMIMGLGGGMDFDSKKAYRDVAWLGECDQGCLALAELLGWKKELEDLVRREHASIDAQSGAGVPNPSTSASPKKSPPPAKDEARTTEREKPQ
Put plainly: Cell lysate labeling, SIRT2-overexpressing HEK293. The assay is classed as biochemical. The note with it: 10 μM probe. On the procedure:
Remarkably, probe 2C was also able to label individual sirtuin isoforms in cell lysates. HEK293 cells overexpressing human SIRT2 were lysed, and the lysate was subjected to the labeling by 10 μM probe 2C.
Cells were harvested and lysed with RIPA buffer (Thermo Fisher Scientific, Rockford, IL, USA) supplemented with protease inhibitor cocktail (Thermo Fisher Scientific, Rockford, IL, USA). Protein concentration was determined by Bradford assay. A typical labeling experiment contained 4 to 24 μg of protein, 500 μM NAD^+, and 10 μM probe in 100 mM phosphate buffer pH 7.5. The photoaffinity labeling, “click” conjugation to fluorescent dye and visualization were similar to the protocols for labeling recombinant sirtuins as described above.

In turn, `C#CCCCC1(CCC(=O)N[C@@H](CCCCNC(=S)CCC(=O)O)C(=O)N[C@@H](C)C(=O)N[C@@H](C)C(=O)OC)N=N1` [Probe 2B] yielded an IC50 against SIRT1 of over 2000 µM. On to `C#CCCCC1(CCC(=O)N[C@@H](CCCCNC(=S)CCCCCCCCCCCCC)C(=O)N[C@@H](C)C(=O)N[C@@H](C)C(=O)OC)N=N1` [Probe 2C], for which the “amount of cell lysate in which labeling was still observed” value at SIRT2 came out at 4 µg. Also, the “labeling of SIRT2 in cell lysate” value on SIRT2 (lysate of HEK293 cells overexpressing human SIRT2) was “clean and selective labeling of SIRT2”.
